# Patent US20110195924A1, “Methods of Inhibiting the Interaction Between S100P and the Receptor for Advanced Glycation End-Products” (priority 2008, published 2011)
# Entries after “also recorded” stand apart in the source; their conditions may differ.
# T1: S100P binding with RAGE (Homo sapiens, UniProt P25815)
# T1 construct: full-length human S100P cDNA (NM_005980) was cloned into the pTrcHis2 vector; His; made in house; host or cells: bacteria (S100P)
# T1 sequence (P25815 1-95): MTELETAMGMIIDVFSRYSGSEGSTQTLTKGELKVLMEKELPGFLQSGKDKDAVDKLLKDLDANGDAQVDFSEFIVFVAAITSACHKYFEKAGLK
# Columns and labels:
# S100P binding with RAGE = molecular target: T1, S100P binding with RAGE; assay: ELISA of S100P binding to RAGE (sRAGE coated plate); settings: analogs at 10-fold lower concentration than cromolyn
# Protocol: After removing un-bound S100P by washing with detergent, the bound S100P and RAGE complex was quantified by adding HRP labeled antibody against S100P. *, P=0.04 C5 1 μM versus cromolyn 5 μM. Two-tailed two-sample (unpaired) Student's t-tests were used to determine P values.
# The plate was washed and the amount of bound S100P was quantitated using anti-S100P antibody.
# The binding of S100P to RAGE was determined using an ELISA assay. sRAGE was attached to the dish and recombinant S100P (50 ng) was added with or without the indicated concentrations of cromolyn analogs. The plate was washed and the amount of bound S100P was quantitated using anti-S100P antibody.
# pancreatic cancer cells = assay: Apoptosis of pancreatic cancer cells with cromolyn analogs and cytotoxic drugs; type: cell-based
# Protocol: (§1) Various cromolyn-based analogs were developed. The effects of the analogs on binding of S100P with RAGE were evaluated for the analogs using a sandwich ELISA. The effectiveness of the analogs to block cancer cell proliferatin and increase apoptosis in vitro were analyzed with and without cisplatin, 5-flurouracil and gemcitabine by MTS and FACS analysis. We also examined the ability of the analogs to inhibit S100P activation of NFkB signaling in cancer cells in vitro and in vivo. Finally, the effects of the novel analogs on tumor growth in vivo was evaluated. One analog, C5OH is shown below:
# In this in vitro study, pancreatic cancer cells were treated with gemcitabine alone or in the presence of cromolyn analogs. The cromolyn analogs themselves have very little effect on the rates of cellular apoptosis, supporting their absence of general toxicity. However, all cromolyn analogs increased the killing of pancreatic cancer cells by gemcitabine.
# MPanc96 tumors = assay: MPanc96 pancreatic tumor growth and survival in mice (analogs); type: in vivo
# Protocol: as §1
# Animals were implanted with MPanc96 cells, a gemcitabine resistant model of pancreatic cancer, and then treated with gemcitabine, C5OH, or the combination. […] Noteworthy, the addition of the hydroxyl group to the carbon chain in C5 allows easy modifications of this molecule. The hydroxyl can be substituted with fluoride that can be labeled for in vivo PET imaging. This hydroxyl can also be used to develop a pro-drug form of C5 by attaching other components with an ester bond.
# NFkB activity = assay: S100P induced NFkB activity in cancer cells (analogs); type: cell-based
# Protocol: as §1, with “evaluated.” for “evaluated. One analog, C5OH is shown below:”
# Panc-1 cells [1] = assay: Panc-1 cell proliferation (MTS); type: cell-based; settings: Panc-1
# Protocol: Panc-1 pancreatic adenocarcinoma cells (1.0×10^3 cells/well) were cultured in the presence or absence of S100P (100 nM) and with or without cromolyn (100 μM), and cell proliferation was analyzed at 24, 48, and 72 hours. Means and 95% confidence intervals of three independent experiments performed in triplicate are shown. *, P=0.001, S100P alone versus S100P+cromolyn.
# Panc-1 cells were plated at 1.0×10^3 cells/well and treated with platelet-derived growth factor (10 ng/mL) with or without cromolyn (100 μM), and cell proliferation was analyzed after 48 hours. Means and 95% confidence intervals of three independent experiments performed in triplicate are shown. *, P=0.004 PDGF and P=0.022 cromolyn+PDGF versus control.
# Growth of Panc-1 and BxPC3 pancreatic adenocarcinoma cells was analyzed using MTS reagent (Promega, Madison, Wis.) according to the manufacturer's directions. Purified S100P (100 nM final concentration) with or without cromolyn (100 μM final concentration) was added to Panc-1 cells. Only cromolyn (0-100 μM) was added to BxPC-3 cells, which express endogenous S100P. For both cell models, 1.0×10^3 cells/well were plated in 96-well culture dishes. Cells were treated with S100P, PDGF, or cromolyn, or a combination, followed immediately by treatment with either S100P or PDGF. MTS (20 μL per well) was added to cells at various times, and the mixture was incubated for 1 hour at 37° C. Samples were then read at 490 nm (as O.D. units) on a uQuant-Microplate Spectrophotometer (Bio-Tek Services Inc., Richmond, Va.). The assay was performed three times in triplicate.
# Panc-1 cells [2] = assay: Panc-1 matrigel invasion assay; type: cell-based; settings: Panc-1; S100P 100 nM alone, 24 hours
# Protocol: FIGS. 2A-2D show the effect of cromolyn on pancreatic cancer cell invasion. Panc-1 and BxPC-3 cells were plated in Bio-coat matrigel and control chambers and cultured in serum-free culture media. After 24 hours non-invaded cells in the upper chamber were removed, and cells that invaded onto the lower surface of the membrane were counted from five adjacent fields. […] Data are expressed as the percent invasion through the matrigel matrix and membrane relative to migration through the control membrane. Means and 95% confidence intervals from three independent experiments performed in triplicate are shown. Two-tailed two-sample (unpaired) Student's t-tests were used to determine P values.
# Panc-1 and BxPC-3 cells were seeded in BIOCOAT matrigel invasion chambers and in control chambers without matrigel (Becton-Dickinson, Bedford, Mass.) according to the manufacturer's protocol. Panc-1 cells were seeded with S100P (100 nM) with or without cromolyn (100 μM), and BxPC-3 cells were seeded with or without cromolyn (1-100 μM). Briefly, 2.0×10^5 cells in 300 μL top solution (serum-free media) were added to each chamber and allowed to invade matrigel for 24 hours at 37° C. in a 5% CO2 atmosphere. The non-invading cells on the upper surface of membrane were removed from the chambers with a cotton swab, and the invading cells on the lower surface of the membrane were fixed and stained using a Diff-Quick stain kit (Becton Dickinson, Bedford, Mass.). After two washes with water, the chambers were allowed to air dry. The numbers of invading cells in five adjacent microscope fields per membrane were counted at 20× magnification to obtain the average number of cells per field. Data are expressed as the percent invasion through the matrigel matrix and membrane relative to the migration through the control membrane. The assays were performed three times.
# NFκB promoter activity = assay: NFκB luciferase reporter assay in Panc-1 cells; type: cell-based; settings: 5 hours
# Protocol: FIGS. 3A, 3B, and 3C show the effect of cromolyn on S100P stimulated NFκB promoter activity in pancreatic cancer cells in vitro and in vivo. Panc-1 and BxPC-3 pancreatic cancer cell lines stably expressing an NFκB luciferase reporter were examined for the effects of S100P and cromolyn. […] Means and 95% confidence intervals are shown for three independent experiments performed in triplicate. *, P=0.022, †, P<0.001, and P<0.001 versus control; #, P=0.005 versus 100 nM S100P alone. […] Means and 95% confidence intervals are shown for three independent experiments performed in triplicate. *, P=0.003, †, P<0.001 versus control. […] After 1 week, tumor growth was assessed and NFκB activity was analyzed using an IVIS system (Xenogen Corp., Alameda, Calif.) after injecting mice with D-luciferin (150 mg per kg body weight) (0 time point). The mice were treated with cromolyn (5 mg per kg body weight by intraperitoneal injection), and NFκB luciferase activity was analyzed again at 24 and 48 hours. *, P=0.005 versus control. Means and 95% confidence intervals are shown for two independent experiments (n=4 mice per group). Two-tailed two-sample (unpaired for in vitro and paired for in vivo studies) Student's t-tests were used to determine P values.
# To study pancreatic cancer cell NFκB activity, a lentivirus NFκB luciferase reporter gene construct was developed. The NFκB luciferase reporter gene was excised and isolated from the pNF-κB-Luc Vector (Clonetec, Mountain View, Calif.) and cloned into the lentiviral vector FG9 (Gift from Dr. Xiao-Feng Qin, Dept. of Immunology, M.D. Anderson Cancer Center replacing the CMV/LTR and UBiC promoters, to form Lenti-NFκB-Luc. Lentiviral NFκB vector were co-transfected with packaging constructs pRSVREV, pMDLg/pRRE, and the VSV-G expression plasmid pHCMVG, and lentivirus was produced in 293T cells by the calcium transfection method, as previously described in Qin, et al., Inhibiting HIV-1 infection in human T cells by lentiviral-mediated delivery of small interfering RNA against CCR5; Proc. Natl. Acad. Sci. U.S.A. 2003 Jan. 7; 100(1):183-8. […] Functional validation of NFκB reporter activity was conducted in vitro using TNF-α (20 ng/mL, Sigma, St. Louis, Mo.) as a positive control.
# BxPC-3 and Panc-1 cells stably expressing a Lenti-NFkB-luc reporter construct were treated with S100P, cromolyn, or the combination for 5 hours. D-luciferin (150 μg/mL) was added to the cells, and luciferase activity was measured using an IVIS bioluminescence system (Xenogen Co. Alameda, Calif.). Each experiment was conducted three times in triplicate.
# [3] = MPanc96, gemcitabine resistant model, to a greater extent than gemcitabine
molecule,measurement,setting,value
O=C([O-])c1cc(=O)c2c(OCCC(O)CCOc3cccc4oc(C(=O)[O-])cc(=O)c34)cccc2o1.[Na+].[Na+] [C5OH],potency in blocking S100P binding to RAGE relative to cromolyn or C5,S100P binding with RAGE,nearly equally potent and more efficient than cromolyn; also recorded: at least as effective as the C5-analog
same,"cancer cell apoptosis in response to various cytoxic treatments, relative to cromolyn",pancreatic cancer cells,at lesser concentrations and to a greater extent than did cromolyn
same,killing of pancreatic cancer cells by gemcitabine,"pancreatic cancer cells; with gemcitabine, C5 and C5OH at 10-fold lower concentration than cromolyn",worked equally well
same,survival of mice with pancreatic tumors,MPanc96 tumors; [3],prolongs survival
same,tumor growth,MPanc96 tumors; [3],reduces tumor growth
same,effects relative to gemcitabine,MPanc96 tumors; MPanc96 model,superior to those of gemcitabine
same,"inhibition of tumor growth and survival in vivo, relative to cromolyn","MPanc96 tumors; mouse, in vivo",superior to cromolyn
same,inhibition of S100P induced NFkB activity relative to cromolyn,NFkB activity,more potently and effectively than did cromolyn
PDGF,"cell proliferation, difference versus control","Panc-1 cells [1]; PDGF 10 ng/mL, 48 hours",0.2 MTS units
same,"cell proliferation, mean","Panc-1 cells [1]; PDGF 10 ng/mL, 48 hours, control mean 0.5",0.7 MTS units
"S100P: purified His-tagged full-length human S100P protein, 95-amino acid member of the S100 family (protein, UniProt P25815 1-95, looked up, His tag, purified His-tagged full-length human S100P protein, 95-amino acid member of the S100 family) Protein S100-P: MTELETAMGMIIDVFSRYSGSEGSTQTLTKGELKVLMEKELPGFLQSGKDKDAVDKLLKDLDANGDAQVDFSEFIVFVAAITSACHKYFEKAGLK","cell proliferation, mean",Panc-1 cells [1]; S100P 100 nM alone,0.93 MTS units
same,"cells invaded, mean",Panc-1 cells [2],58.0%
same,"NFκB promoter activity, difference versus 0 nM",NFκB promoter activity; S100P 1 nM,3544 photons/sec
same,"NFκB promoter activity, mean","NFκB promoter activity; S100P 1 nM, 0 nM mean 3358",6902 photons/sec
same,"NFκB promoter activity, difference versus 0 nM",NFκB promoter activity; S100P 10 nM,5400 photons/sec
same,"NFκB promoter activity, mean",NFκB promoter activity; S100P 10 nM,8758 photons/sec
same,"NFκB promoter activity, difference versus 0 nM",NFκB promoter activity; S100P 100 nM,11100 photons/sec
same,"NFκB promoter activity, mean",NFκB promoter activity; S100P 100 nM,14460 photons/sec
